Results as given in patent US8299048B2, “Hexahydrocyclopentyl[f]indazole sulfonamides and derivatives thereof as selective glucocorticoid receptor modulators” (Merck Sharp & Dohme Corp., priority 2008, dated 2012).

Target: T1, human GR (Homo sapiens, UniProt P04150)
T1 sequence (P04150 1-777): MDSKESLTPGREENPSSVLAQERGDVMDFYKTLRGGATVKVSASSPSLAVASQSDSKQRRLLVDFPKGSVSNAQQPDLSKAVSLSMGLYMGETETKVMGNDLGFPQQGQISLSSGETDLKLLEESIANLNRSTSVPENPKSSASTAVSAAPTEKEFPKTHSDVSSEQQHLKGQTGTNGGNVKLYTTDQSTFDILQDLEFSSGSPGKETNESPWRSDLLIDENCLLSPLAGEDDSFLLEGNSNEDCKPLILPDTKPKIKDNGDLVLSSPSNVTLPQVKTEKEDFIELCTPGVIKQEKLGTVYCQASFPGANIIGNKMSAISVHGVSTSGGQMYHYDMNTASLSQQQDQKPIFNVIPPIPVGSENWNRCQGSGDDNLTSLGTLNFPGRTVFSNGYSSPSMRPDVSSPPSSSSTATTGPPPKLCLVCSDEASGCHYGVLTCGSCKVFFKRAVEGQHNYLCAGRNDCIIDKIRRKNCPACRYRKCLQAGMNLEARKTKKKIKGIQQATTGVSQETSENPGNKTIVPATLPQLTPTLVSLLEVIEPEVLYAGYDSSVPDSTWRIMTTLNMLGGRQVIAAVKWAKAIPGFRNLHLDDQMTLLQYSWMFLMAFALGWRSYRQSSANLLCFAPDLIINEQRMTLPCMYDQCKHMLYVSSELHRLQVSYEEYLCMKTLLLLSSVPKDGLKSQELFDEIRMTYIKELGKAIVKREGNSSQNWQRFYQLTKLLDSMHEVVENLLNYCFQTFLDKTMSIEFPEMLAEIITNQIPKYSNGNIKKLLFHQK
Assay: Trans-Activation Modulation of Glucocorticoid Receptor (GRAMMER), MMTV-LUC reporter, agonist mode
Type: cell-based
Parameters: endogenous in cells
Conditions: for Emax: A549, A549 cells, maximum activity, read-out: Transactivation A549 Cells GRAMMER Emax; for EC50: A549 cells, inflection point, read-out: Transactivation A549 Cells GRAMMER IP
In short: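 Readout is luciferase from a modified MMTV LTR promoter after 24 h compound exposure alongside 10 nM dexamethasone (100% activity reference), DMSO ≤1%.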

| Structure (SMILES) | Emax [%] | EC50 [nM] |
| --- | --- | --- |
| C[C@]12Cc3cnn(-c4ccc(F)cc4)c3C=C1CC[C@@H]2CN(CCO)S(=O)(=O)c1cc(C(F)(F)F)ccc1Cl [Example 80, 2-chloro-N-{[(4αR,5S)-1-(4-fluorophenyl)-4α-methyl-1,4,4α,5,6,7-hexahydrocyclopenta[f]indazol-5-yl]methyl}-N-(2-hydroxyethyl)-5-(trifluoromethyl)benzenesulfonamide] | 6 | 1140 |
| C[C@]12Cc3cnn(-c4ccc(F)cc4)c3C=C1CC[C@@H]2CN(CCO)S(=O)(=O)c1ccccc1Cl [Example 81, 2-chloro-N-{[(4αR,5S)-1-(4-fluorophenyl)-4α-methyl-1,4,4α,5,6,7-hexahydrocyclopenta[f]indazol-5-yl]methyl}-N-(2-hydroxyethyl)benzenesulfonamide] | 17.2 | 461 |
| Cc1nn(C)c(Cl)c1S(=O)(=O)N(CCO)C[C@H]1CCC2=Cc3c(cnn3-c3ccc(F)cc3)C[C@@]21C [Example 83, 5-chloro-N-{[(4αR,5S)-1-(4-fluorophenyl)-4α-methyl-1,4,4α,5,6,7-hexahydrocyclopenta[f]indazol-5-yl]methyl}-N-(2-hydroxyethyl)-1,3-dimethyl-1H-pyrazole-4-sulfonamide] | 6.9 | 568 |
| C[C@]12Cc3cnn(-c4ccc(F)cc4)c3C=C1CC[C@@H]2CN(CCO)S(=O)(=O)c1ccccc1-c1ccccc1 [Example 84, N-{[(4αR,5S)-1-(4-fluorophenyl)-4α-methyl-1,4,4α,5,6,7-hexahydrocyclopenta[f]indazol-5-yl]methyl}-N-(2-hydroxyethyl)biphenyl-2-sulfonamide] | 19.7 | 442 |
| C[C@]12Cc3cnn(-c4ccc(F)cc4)c3C=C1CC[C@@H]2CN(CCc1ccccc1F)S(=O)(=O)Cc1cccc(C(F)(F)F)c1 [Example 88, N-[2-(2-fluorophenyl)ethyl]-N-{[(4αR,5S)-1-(4-fluorophenyl)-4α-methyl-1,4,4α,5,6,7-hexahydrocyclopenta[f]indazol-5-yl]methyl}-1-[3-(trifluoromethyl)phenyl]methanesulfonamide] | 25.3 | 618 |
| COc1ccccc1CCN(C[C@H]1CCC2=Cc3c(cnn3-c3ccc(F)cc3)C[C@@]21C)S(=O)(=O)c1ccccc1F [Example 90, 2-fluoro-N-{[(4αR,5S)-1-(4-fluorophenyl)-4α-methyl-1,4,4α,5,6,7-hexahydrocyclopenta[f]indazol-5-yl]methyl}-N-[2-(2-methoxyphenyl)ethyl]benzenesulfonamide] | 33.5 | 354 |
| Cc1ccc(CCN(C[C@H]2CCC3=Cc4c(cnn4-c4ccc(F)cc4)C[C@@]32C)S(=O)(=O)c2ccccc2F)cc1 [Example 91, 2-fluoro-N-{[(4αR,5S)-1-(4-fluorophenyl)-4α-methyl-1,4,4α,5,6,7-hexahydrocyclopenta[f]indazol-5-yl]methyl}-N-[2-(4-methylphenyl)ethyl]benzenesulfonamide] | 10.7 | 643 |
| C[C@]12Cc3cnn(-c4ccc(F)cc4)c3C=C1CC[C@@H]2CN(CCc1ccccc1Cl)S(=O)(=O)c1ccccc1F [Example 92, N-[2-(2-chlorophenyl)ethyl]-2-fluoro-N-{[(4αR,5S)-1-(4-fluorophenyl)-4α-methyl-1,4,4α,5,6,7-hexahydrocyclopenta[f]indazol-5-yl]methyl}benzenesulfonamide] | 41.6 | 504 |
| CC(C1CCC2=Cc3c(cnn3-c3ccc(F)cc3)C[C@@]21C)N(CCc1ccccc1F)S(=O)(=O)CC(F)(F)F (stereo partly drawn) [Example 93, 2,2,2-trifluoro-N-[2-(2-fluorophenyl)ethyl]-N-{1-[(4αR)-1-(4-fluorophenyl)-4α-methyl-1,4,4α,5,6,7-hexahydrocyclopenta[f]indazol-5-yl]ethyl}ethanesulfonamide] | 50.9 | 296 |
| COCCN(C[C@H]1CCC2=Cc3c(cnn3-c3ccc(F)cc3)C[C@@]21C)S(=O)(=O)c1ccccc1F [Example 94, 2-fluoro-N-{[(4αR,5S)-1-(4-fluorophenyl)-4α-methyl-1,4,4α,5,6,7-hexahydrocyclopenta[f]indazol-5-yl]methyl}-N-(2-methoxyethyl)benzenesulfonamide] | 43.9 | 423 |

Second part, the compound after the results:

| Emax [%] | EC50 [nM] | Structure (SMILES) |
| --- | --- | --- |
| 61.1 | 287 | C[C@]12Cc3cnn(-c4ccc(F)cc4)c3C=C1CC[C@@H]2CN(CCO)S(=O)(=O)c1ccc(F)cc1F [Example 82, 2,4-difluoro-N-{[(4αR,5S)-1-(4-fluorophenyl)-4α-methyl-1,4,4α,5,6,7-hexahydrocyclopenta[f]indazol-5-yl]methyl}-N-(2-hydroxyethyl)benzenesulfonamide] |
| 1.6 | 73.7 | CC(=O)Nc1ccc(S(=O)(=O)N(CCO)C[C@H]2CCC3=Cc4c(cnn4-c4ccc(F)cc4)C[C@@]32C)cc1 [Example 85, N-(4-{[{[(4αR,5S)-1-(4-fluorophenyl)-4α-methyl-1,4,4α,5,6,7-hexahydrocyclopenta[f]indazol-5-yl]methyl}(2-hydroxyethyl)amino]sulfonyl}phenyl)acetamide] |
| 68.2 | 68.6 | C[C@]12Cc3cnn(-c4ccc(F)cc4)c3C=C1CC[C@@H]2CN(CCc1ccccc1F)S(=O)(=O)c1ccccc1F [Example 86, 2-fluoro-N-[2-(2-fluorophenyl)ethyl]-N-{[(4αR,5S)-1-(4-fluorophenyl)-4α-methyl-1,4,4α,5,6,7-hexahydrocyclopenta[f]indazol-5-yl]methyl}benzenesulfonamide] |
| 65.1 | 231 | CCCS(=O)(=O)N(CCc1ccccc1F)C[C@H]1CCC2=Cc3c(cnn3-c3ccc(F)cc3)C[C@@]21C [Example 87, N-[2-(2-fluorophenyl)ethyl]-N-{[(4αR,5S)-1-(4-fluorophenyl)-4α-methyl-1,4,4α,5,6,7-hexahydrocyclopenta[f]indazol-5-yl]methyl}propane-1-sulfonamide] |
| 81.4 | 119 | C[C@]12Cc3cnn(-c4ccc(F)cc4)c3C=C1CC[C@@H]2CN(CCc1ccccc1F)S(=O)(=O)CC(F)(F)F [Example 89, 2,2,2-trifluoro-N-[2-(2-fluorophenyl)ethyl]-N-{[(4αR,5S)-1-(4-fluorophenyl)-4α-methyl-1,4,4α,5,6,7-hexahydrocyclopenta[f]indazol-5-yl]methyl}ethanesulfonamide] |
